Test results reported in patent publication US5002942A, “1,5-benzothiazepine derivatives, their preparation and their use in the treatment of cardiovascular disorders” (Sankyo Company, Limited, priority 1988, dated 1991).

Tests used:
calcium channel = target: T1, calcium channel (Cavia porcellus, UniProt O35505); test: Calcium channel blocking action (calcium-induced contraction of excised taenia coli); conditions: 0.5 h, test compound 10^-8 g/ml, 30 minutes incubation, guinea pig taenia coli, hydrochlorides (Example 34: fumarate)
T1 construct: The taenia coli excised from a male guinea pig; from tissue; host or cells: guinea pig taenia coli (excised smooth muscle strip)
T1 sequence (O35505 whole entry): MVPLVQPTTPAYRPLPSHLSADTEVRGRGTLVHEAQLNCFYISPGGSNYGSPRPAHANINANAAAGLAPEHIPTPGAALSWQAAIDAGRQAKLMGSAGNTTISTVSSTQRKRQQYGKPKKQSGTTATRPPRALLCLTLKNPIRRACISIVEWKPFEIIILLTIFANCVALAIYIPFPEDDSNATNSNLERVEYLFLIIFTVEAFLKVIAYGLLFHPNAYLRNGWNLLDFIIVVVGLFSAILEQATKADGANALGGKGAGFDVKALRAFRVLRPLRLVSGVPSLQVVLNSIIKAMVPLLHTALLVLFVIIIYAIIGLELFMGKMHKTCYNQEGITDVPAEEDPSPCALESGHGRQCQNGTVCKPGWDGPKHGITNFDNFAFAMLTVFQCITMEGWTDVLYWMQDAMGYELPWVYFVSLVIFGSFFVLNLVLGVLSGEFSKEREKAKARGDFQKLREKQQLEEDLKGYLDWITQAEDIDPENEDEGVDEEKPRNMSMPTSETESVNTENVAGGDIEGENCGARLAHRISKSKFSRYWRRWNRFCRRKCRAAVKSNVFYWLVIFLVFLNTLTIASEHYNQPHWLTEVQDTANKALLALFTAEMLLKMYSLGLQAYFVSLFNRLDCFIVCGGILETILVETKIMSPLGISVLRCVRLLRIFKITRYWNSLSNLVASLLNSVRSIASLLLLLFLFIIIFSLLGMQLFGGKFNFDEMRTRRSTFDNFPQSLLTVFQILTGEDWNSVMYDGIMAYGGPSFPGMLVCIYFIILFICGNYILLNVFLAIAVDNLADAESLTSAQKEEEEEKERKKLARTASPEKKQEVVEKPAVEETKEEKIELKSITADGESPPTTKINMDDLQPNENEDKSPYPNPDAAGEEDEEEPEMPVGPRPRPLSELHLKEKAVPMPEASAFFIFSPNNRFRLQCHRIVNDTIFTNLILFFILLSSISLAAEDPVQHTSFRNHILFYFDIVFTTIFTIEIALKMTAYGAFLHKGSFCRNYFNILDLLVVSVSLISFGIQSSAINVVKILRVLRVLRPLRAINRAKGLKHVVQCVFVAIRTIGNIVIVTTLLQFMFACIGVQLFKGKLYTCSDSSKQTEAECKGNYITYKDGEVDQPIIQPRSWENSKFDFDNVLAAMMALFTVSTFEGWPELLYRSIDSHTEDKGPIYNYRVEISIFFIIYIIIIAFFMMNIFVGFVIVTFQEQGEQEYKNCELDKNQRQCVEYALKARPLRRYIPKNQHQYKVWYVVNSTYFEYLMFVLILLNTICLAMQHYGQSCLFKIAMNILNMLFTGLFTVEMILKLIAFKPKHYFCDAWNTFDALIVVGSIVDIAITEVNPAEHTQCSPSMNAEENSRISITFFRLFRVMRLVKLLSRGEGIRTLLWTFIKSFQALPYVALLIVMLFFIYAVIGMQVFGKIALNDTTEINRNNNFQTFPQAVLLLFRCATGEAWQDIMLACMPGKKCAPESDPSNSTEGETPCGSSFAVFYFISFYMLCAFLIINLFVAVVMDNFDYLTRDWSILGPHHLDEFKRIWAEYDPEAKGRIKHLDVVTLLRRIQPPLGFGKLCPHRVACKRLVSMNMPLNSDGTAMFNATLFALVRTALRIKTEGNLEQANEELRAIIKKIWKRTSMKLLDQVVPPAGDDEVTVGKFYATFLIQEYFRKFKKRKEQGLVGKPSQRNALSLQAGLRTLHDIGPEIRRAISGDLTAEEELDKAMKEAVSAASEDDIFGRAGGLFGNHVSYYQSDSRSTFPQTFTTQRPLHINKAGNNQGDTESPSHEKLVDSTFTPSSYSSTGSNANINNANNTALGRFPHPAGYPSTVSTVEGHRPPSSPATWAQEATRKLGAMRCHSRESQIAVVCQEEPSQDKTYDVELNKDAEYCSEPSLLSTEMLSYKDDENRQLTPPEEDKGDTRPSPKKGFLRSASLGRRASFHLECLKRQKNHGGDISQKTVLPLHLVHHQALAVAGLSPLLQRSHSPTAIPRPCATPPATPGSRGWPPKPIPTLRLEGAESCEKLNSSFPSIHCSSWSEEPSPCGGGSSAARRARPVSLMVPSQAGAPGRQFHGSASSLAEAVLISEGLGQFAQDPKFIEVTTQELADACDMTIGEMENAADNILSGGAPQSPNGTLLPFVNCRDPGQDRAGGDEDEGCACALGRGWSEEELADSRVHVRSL
Experimental: The taenia coli excised from a male guinea pig weighing from 250 to 300 g was cut into a length of 6 to 7 mm and suspended in an organ bath filled with Tylord's solution (sodium chloride 97 mM, potassium chloride 40 mM, sodium hydrogen carbonate 11.9 mM, disodium hydrogen phosphate 0.4 mM, glucose 5.5 mM; pH 7.1). The bath solution contained no calcium ions and was aerated with a mixture of 95% oxygen and 5% carbon dioxide by volume. To this solution were added 10 and 30 mM solutions of calcium chloride at 30 minute intervals to obtain a final concentration of 0.4 mM. The tension which developed 1n the taenia coli was measured by an isometric transducer. The organ bath was then washed twice or more with Tylord's solution containing no calcium ions after which it was allowed to equilibrate for 30 minutes. After the muscle had stabilised, test compound dissolved in physiological saline was added to the bath to a final concentration of 10^-8 g/ml, and the bath was incubated for 30 minutes. 30 and 100 mM solutions of calcium chloride were again added to the bath, and the developed tension was measured. From the magnitude of the calcium-induced contraction before and after the test drug had been added the inhibitory rate was calculated using the following formula: [formula] where: Co=contraction induced by calcium ion before a test drug was added: and
Ct=contraction induced by calcium ion after the test drug had been added.
In addition to the compounds of the invention, we also carried out the same test with the following compounds of the prior art: (±)-diltiazem, […], (±)-8-chlorodiltiazem (8-Cl-diltiazem). (±)-8-methoxydiltiazem (8-MeO-diltiazem) and (±)-8-benzyloxydiltiazem (8-BzO-diltiazem).
In the Table, the compounds of the invention are identified by the number of the one of the foregoing Examples in which the compound was prepared. The prior art compounds are identified by the abbreviated generic names shown above in parentheses.
All of the compounds except for that of Example 34 were employed as the hydrochlorides; that of Example 34 was employed as the fumarate.

[1] = tested on: SHR (spontaneously hypertensive rats); test: Antihypertensive action in SHR; format: in vivo; conditions: conscious male SHR, hydrochlorides, 24 hours
Experimental: Male SHR (spontaneously hypertensive rats), 23 to 30 weeks old, were anesthesized with sodium pentobarbital 50 mg/kg intraperitoneal administration), and a polyethylene cannula was inserted through the left femoral artery into the abdominal aorta. The other end of the cannula was led out of the body and fixed at the back of the neck. One week after the operation, when the animal had recovered from the stress of the surgery, the other end of the cannula was connected to a blood pressure measuring device, which was constructed according to the directions of Laffan et al. [Laffan, P.J., Peterson A., Hitch S,W. and Jeunelot C., Cardiovascular Res. 6. 319-324 (1972)], but with slight modifications. The blood pressure and heart rate of the conscious and […] SHR were measured. After the blood pressure and the heart rate had stabilised for more than one hour, the test drug was administered by […]. After administration of the test sample, the blood pressure and the heart rate were measured every 15 minutes over a period of 24 hours. The maximum decrease in blood pressure and the half-time of the blood pressure lowering activity thus determined are shown in Table 6.
All of the test compounds were employed as the hydrochlorides.

[2] = Rattus norvegicus, po, Dose 10 mg/kg, read-out: Maximum hypotension (%)
[3] = Rattus norvegicus, po, Dose 30 mg/kg, read-out: Maximum hypotension (%)

Structure (SMILES)	inhibition at 0.01 µg/mL (calcium channel)	Half-time of hypotension action ([1]; Dose 10 mg/kg)	change in vivo at 10 mg/kg [1, 2]	further results
COc1ccc([C@@H]2Sc3cc(Oc4ccc(F)cc4)ccc3N(CCN(C)C)C(=O)[C@@H]2OC(C)=O)cc1 [Example 14, (2S, 3S)-3-Acetoxy-5-(2-dimethylaminoethyl)-8-(4-fluoro-phenoxy)-2,3-dihydro-2-(4-methoxyphenyl)-1,5-benzothiazpin-4(5H)-one]	94%	12.7 h	-37%	
COc1ccc([C@@H]2Sc3cc(Cc4cccs4)ccc3N(CCN(C)C)C(=O)[C@@H]2OC(C)=O)cc1 [Example 20, (2S, 3S)-3-Acetoxy-5-(2-dimethylaminoethyl)-2,3-dihydro-2-(4-Methoxyphenyl)-8-(2-thienylmethyl)-1,5-benzothiazepin-4(5H)-one]	57%	8.5 h	-24%	
COc1ccc(Oc2ccc3c(c2)S[C@@H](c2ccc(OC)cc2)[C@@H](OC(C)=O)C(=O)N3CCN(C)C)cc1 (relative stereo) [Example 28, (±)-cis-3-Acetoxy-5-(2-dimethylaminoethyl)-2,3-dihydro-8-(4-methoxyphenoxy)-2-(4-methoxyphenyl)-1,5-benzothlazepin-4-(5H)-one]	59%			
CC(=O)O[C@H]1C(=O)N(CCN(C)C)c2ccc(Oc3ccccc3)cc2S[C@H]1c1ccc2c(c1)OCO2 (relative stereo) [Example 6, (±)-Cis-3-acetoxy-5-(2-dimethylaminoethyl)-2,3-dihydro-2-(3,4-methylenedioxyphenyl)-8-phenoxy-1,5-benzothiazepin-(5H)-one]	53%			
COc1ccc([C@@H]2Sc3ccccc3N(CCN(C)C)C(=O)[C@@H]2OC(C)=O)cc1 (relative stereo) [(±)-diltiazem, reference compound]	11%			Half-time of hypotension action ([1]; Dose 30 mg/kg): 3.8 h; change in vivo at 30 mg/kg [1, 3]: -17%
COc1ccc([C@@H]2Sc3cc(Oc4ccccc4)ccc3N(CCN(C)C)C(=O)[C@@H]2OC(C)=O)cc1 (racemic) [Example 2, (±)-Cis-3-acetoxy-5-(2-dimethylaminoethyl)-2,3-dihydro-2-(4-methoxyphenyl)-8-phenoxy-1,5-benzothiazepin-4(5H)-one]	58%			Half-time of hypotension action ([1]; Dose 30 mg/kg): 13.9 h; change in vivo at 30 mg/kg [1, 3]: -34%
COc1ccc([C@@H]2Sc3cc(Oc4ccc(F)cc4)ccc3N(CCN(C)C)C(=O)[C@@H]2OC(C)=O)cc1F (racemic) [Example 24, (±)-cis-3-Acetoxy-5-(2-dimethylaminoethyl)-2-(3-fluoro-4-methoxyphenyl)-8-(4-fluorophenoxy)-2,3-dihydro-1,5-benzothiazepin-4(5H)-one]	93%			
CCN(CC)CCN1C(=O)[C@H](OC(C)=O)[C@H](c2ccc(OC)cc2)Sc2cc(Oc3ccccc3)ccc21 [Example 36, (2S, 3S)-3-Acetoxy-5-(2-diethylaminoethyl)-2,3-dihydro-2-(4-methoxyphenyl)-8-phenoxy-1,5-benzothiazepin-4(5H)-one]	80%	8.2 h	-29%	
COc1ccc([C@@H]2Sc3cc(Oc4ccc(F)cc4)ccc3N(CCN(C)C)C(=O)[C@@H]2OC(C)=O)cc1F [Example 32, (2S, 3S)-3-Acetoxy-5-(2-dimethylaminoethyl)-2-(3-fluoro-4-methoxyphenyl)-8-(4-fluorophenoxy)-2,3-dihydro-1,5-benzothiazepin-4(5H)-one]	100%	13.8 h	-41%	
COc1ccc([C@@H]2Sc3cc(Oc4ccc(F)cc4)ccc3N(CCN(C)C)C(=O)[C@@H]2OC(C)=O)cc1 (racemic) [Example 22, (±)-cis-3-Acetoxy-5-(2-dimethylaminoethyl)-8-(4-fluoro-phenoxy)-2,3-dihydro-2-(4-methoxyphenyl)-1,5-benzothiazepin-4(5H)-one]	52%			
COc1ccc([C@@H]2Sc3cc(Cc4ccccc4)ccc3N(CCN(C)C)C(=O)[C@@H]2OC(C)=O)cc1 [Example 18]	77%	13.8 h	-32%	
COc1ccc([C@@H]2Sc3cc(Oc4ccccc4)ccc3N(CCN(C)C)C(=O)[C@@H]2OC(C)=O)cc1F (racemic) [Example 4, (±)-Cis-3-acetoxy-5-(2-dimethylaminoethyl)-2-(3-fluoro-4-methoxyphenyl)-2,3-dihydro-8-phenoxy-1,5-benzothiazepin-4(5H)-one]	84%			Half-time of hypotension action ([1]; Dose 30 mg/kg): 16.0 h; change in vivo at 30 mg/kg [1, 3]: -36%
COc1ccc([C@@H]2Sc3cc(Oc4ccccc4)ccc3N(CCN(C)C)C(=O)[C@@H]2OC(C)=O)cc1 [Example 12, (2S, 3S)-3-Acetoxy-5-(2-dimethylaminoethyl)-2,3-dihydro-2-(4-methoxyphenyl1}-8-phenoxy-1,5-benzothiazepin-4(5H)-one]	86%			Half-time of hypotension action ([1]; Dose 5 mg/kg): 11.8 h; change in vivo at 5 mg/kg ([1]; Rattus norvegicus, po, Dose 5 mg/kg, read-out: Maximum hypotension (%)): -38%
COc1ccc([C@@H]2Sc3cc(Cl)ccc3N(CCN(C)C)C(=O)[C@@H]2OC(C)=O)cc1 (relative stereo) [(±)-8-Cl-diltiazem, cis-3-acetoxy-8-chloro-2,3-dihydro-5-(2-dimethylaminoethyl)-2-(4-methoxyphenyl)-1,5-benzothiazepin-4(5E,uns/H/ )-one, reference compound]	56%			Half-time of hypotension action ([1]; Dose 30 mg/kg): 6.1 h; change in vivo at 30 mg/kg [1, 3]: -32%
COc1ccc([C@@H]2Sc3ccccc3N(CCN(C)C)C(=O)[C@@H]2OC(C)=O)cc1 [(+)-diltiazem, (2, 3S)-cis-3-acetoxy-2,3-dihydro-5-(2-dimethylaminoethyl)-2-(4-methoxyphenyl)-1,5-benzothiazepin-4(5H)-one, reference compound]	20%	3.3 h	-15%	
COc1ccc([C@@H]2Sc3cc(OC)ccc3N(CCN(C)C)C(=O)[C@@H]2OC(C)=O)cc1 (relative stereo) [(±)-8-MeO-diltiazem, cis-3-acetoxy-8-methoxy-2,3-dihydro-5-(2-dimethylaminoethyl)-2-(4-methoxyphenyl)-1,5-benzotbiazepin-4(5E,uns/H/ )-one, reference compound]	67%			Half-time of hypotension action ([1]; Dose 30 mg/kg): 5.8 h; change in vivo at 30 mg/kg [1, 3]: -35%
COc1ccc([C@@H]2Sc3cc(Oc4ccc(Cl)cc4)ccc3N(CCN(C)C)C(=O)[C@@H]2OC(C)=O)cc1 (relative stereo) [Example 30, (±)-cis-3-Acetoxy-8-(4-chlorophenoxy)-2,3-dihydro-5-(2-dimethylaminoethyl)-2-(4-methoxyphenyl)-1,5-benzothiazepin-4-(5H)-one]	56%			
COc1ccc([C@@H]2Sc3cc(Oc4ccc5c(c4)OCO5)ccc3N(CCN(C)C)C(=O)[C@@H]2OC(C)=O)cc1 [Example 34, (2S, 3S)-3-Acetoxy-5-(2-dimethylaminoethyl)-2,3-dihydro-2-(4-methoxyphenyl)-8-(3,4-methylenedioxyphenoxy)-1,5-benzothiazepin-4(5H)-one]	88%			
